Assay: Stability of tilidine mesylate in solid form, in combination with solid additives

For tilidine mesylate, the “decomposition in the solid form (stability)” value was “virtually does not undergo any decomposition”.

Reference: patent US6579536B1, “Sustained-release pharmaceutical preparation containing tilidine mesylate as active ingredient” (Hexal AG, priority 1998, dated 2003)
